Data from the NIST ThermoML archive (doi:10.1021/acs.jced.7b00773).

Details: Liquid; for viscosity: Concentric cylinders viscometry

CCn1cc[n+](C)c1.N#C[B-](C#N)(C#N)C#N [1-ethyl-3-methylimidazolium tetracyanoborate]
100 kPa
Details	viscosity [mPa·s]
293.15 K	22.11
303.15 K	15.38
313.15 K	11.23
323.15 K	8.55
333.15 K	6.751
343.15 K	5.473
353.15 K	4.537
363.15 K	3.833
373.15 K	3.289

Details	mass density [kg/m3]
293.15 K, 100 kPa, Vibrating tube method	1040.5
303.15 K, 100 kPa, Vibrating tube method	1032.7
311.8 K, 10000 kPa, Bellows volumetry	1031.2
311.8 K, 20000 kPa, Bellows volumetry	1036.6
311.8 K, 30000 kPa, Bellows volumetry	1041.7
311.8 K, 40000 kPa, Bellows volumetry	1046.6
311.8 K, 50000 kPa, Bellows volumetry	1051.3
311.8 K, 60000 kPa, Bellows volumetry	1055.9
311.8 K, 70000 kPa, Bellows volumetry	1060.3
311.8 K, 80000 kPa, Bellows volumetry	1064.6
311.8 K, 90000 kPa, Bellows volumetry	1068.7
311.8 K, 100000 kPa, Bellows volumetry	1072.8
311.8 K, 110000 kPa, Bellows volumetry	1076.8
311.8 K, 120000 kPa, Bellows volumetry	1080.6
311.8 K, 130000 kPa, Bellows volumetry	1084.3
311.8 K, 140000 kPa, Bellows volumetry	1088
311.8 K, 150000 kPa, Bellows volumetry	1091.6
311.8 K, 160000 kPa, Bellows volumetry	1095.1
311.8 K, 170000 kPa, Bellows volumetry	1098.5
311.8 K, 180000 kPa, Bellows volumetry	1101.9
311.8 K, 190000 kPa, Bellows volumetry	1105.1
311.8 K, 200000 kPa, Bellows volumetry	1108.5
313.15 K, 100 kPa, Vibrating tube method	1024.9
323.15 K, 100 kPa, Vibrating tube method	1017.2
331.7 K, 10000 kPa, Bellows volumetry	1016.3
331.7 K, 20000 kPa, Bellows volumetry	1021.9
331.7 K, 30000 kPa, Bellows volumetry	1027.4
331.7 K, 40000 kPa, Bellows volumetry	1032.6
331.7 K, 50000 kPa, Bellows volumetry	1037.5
331.7 K, 60000 kPa, Bellows volumetry	1042.3
331.7 K, 70000 kPa, Bellows volumetry	1046.9
331.7 K, 80000 kPa, Bellows volumetry	1051.4
331.7 K, 90000 kPa, Bellows volumetry	1055.7
331.7 K, 100000 kPa, Bellows volumetry	1059.9
331.7 K, 110000 kPa, Bellows volumetry	1064
331.7 K, 120000 kPa, Bellows volumetry	1068
331.7 K, 130000 kPa, Bellows volumetry	1071.9
331.7 K, 140000 kPa, Bellows volumetry	1075.6
331.7 K, 150000 kPa, Bellows volumetry	1079.2
331.7 K, 160000 kPa, Bellows volumetry	1082.9
331.7 K, 170000 kPa, Bellows volumetry	1086.4
331.7 K, 180000 kPa, Bellows volumetry	1089.9
331.7 K, 190000 kPa, Bellows volumetry	1093.3
331.7 K, 200000 kPa, Bellows volumetry	1096.7
333.15 K, 100 kPa, Vibrating tube method	1009.6
343.15 K, 100 kPa, Vibrating tube method	1002
351.8 K, 10000 kPa, Bellows volumetry	1001.6
351.8 K, 20000 kPa, Bellows volumetry	1007.5
351.8 K, 30000 kPa, Bellows volumetry	1013.3
351.8 K, 40000 kPa, Bellows volumetry	1018.7
351.8 K, 50000 kPa, Bellows volumetry	1024
351.8 K, 60000 kPa, Bellows volumetry	1029
351.8 K, 70000 kPa, Bellows volumetry	1033.8
351.8 K, 80000 kPa, Bellows volumetry	1038.5
351.8 K, 90000 kPa, Bellows volumetry	1043
351.8 K, 100000 kPa, Bellows volumetry	1047.3
351.8 K, 110000 kPa, Bellows volumetry	1051.5
351.8 K, 120000 kPa, Bellows volumetry	1055.7
351.8 K, 130000 kPa, Bellows volumetry	1059.7
351.8 K, 140000 kPa, Bellows volumetry	1063.6
351.8 K, 150000 kPa, Bellows volumetry	1067.4
351.8 K, 160000 kPa, Bellows volumetry	1071.2
351.8 K, 170000 kPa, Bellows volumetry	1074.8
351.8 K, 180000 kPa, Bellows volumetry	1078.4
351.8 K, 190000 kPa, Bellows volumetry	1081.9
351.8 K, 200000 kPa, Bellows volumetry	1085.3
353.15 K, 100 kPa, Vibrating tube method	994.8
363.15 K, 100 kPa, Vibrating tube method	987.5
372 K, 10000 kPa, Bellows volumetry	987.2
372 K, 20000 kPa, Bellows volumetry	993.6
372 K, 30000 kPa, Bellows volumetry	999.6
372 K, 40000 kPa, Bellows volumetry	1005.4
372 K, 50000 kPa, Bellows volumetry	1010.8
372 K, 60000 kPa, Bellows volumetry	1016
372 K, 70000 kPa, Bellows volumetry	1021
372 K, 80000 kPa, Bellows volumetry	1025.9
372 K, 90000 kPa, Bellows volumetry	1030.5
372 K, 100000 kPa, Bellows volumetry	1035.1
372 K, 110000 kPa, Bellows volumetry	1039.5
372 K, 120000 kPa, Bellows volumetry	1043.8
372 K, 130000 kPa, Bellows volumetry	1048
372 K, 140000 kPa, Bellows volumetry	1052.1
372 K, 150000 kPa, Bellows volumetry	1055.9
372 K, 160000 kPa, Bellows volumetry	1059.8
372 K, 170000 kPa, Bellows volumetry	1063.5
372 K, 180000 kPa, Bellows volumetry	1067.2
372 K, 190000 kPa, Bellows volumetry	1070.9
372 K, 200000 kPa, Bellows volumetry	1074.4
373.15 K, 100 kPa, Vibrating tube method	980.3
392.1 K, 10000 kPa, Bellows volumetry	973
392.1 K, 20000 kPa, Bellows volumetry	979.8
392.1 K, 30000 kPa, Bellows volumetry	986.2
392.1 K, 40000 kPa, Bellows volumetry	992.2
392.1 K, 50000 kPa, Bellows volumetry	998
392.1 K, 60000 kPa, Bellows volumetry	1003.4
392.1 K, 70000 kPa, Bellows volumetry	1008.6
392.1 K, 80000 kPa, Bellows volumetry	1013.8
392.1 K, 90000 kPa, Bellows volumetry	1018.6
392.1 K, 100000 kPa, Bellows volumetry	1023.3
392.1 K, 110000 kPa, Bellows volumetry	1028
392.1 K, 120000 kPa, Bellows volumetry	1032.4
392.1 K, 130000 kPa, Bellows volumetry	1036.6
392.1 K, 140000 kPa, Bellows volumetry	1040.8
392.1 K, 150000 kPa, Bellows volumetry	1044.9
392.1 K, 160000 kPa, Bellows volumetry	1048.8
392.1 K, 170000 kPa, Bellows volumetry	1052.8
392.1 K, 180000 kPa, Bellows volumetry	1056.5
392.1 K, 190000 kPa, Bellows volumetry	1060.2
392.1 K, 200000 kPa, Bellows volumetry	1063.9
412.2 K, 10000 kPa, Bellows volumetry	959.2
412.2 K, 20000 kPa, Bellows volumetry	966.3
412.2 K, 30000 kPa, Bellows volumetry	973
412.2 K, 40000 kPa, Bellows volumetry	979.4
412.2 K, 50000 kPa, Bellows volumetry	985.4
412.2 K, 60000 kPa, Bellows volumetry	991.1
412.2 K, 70000 kPa, Bellows volumetry	996.6
412.2 K, 80000 kPa, Bellows volumetry	1001.9
412.2 K, 90000 kPa, Bellows volumetry	1007
412.2 K, 100000 kPa, Bellows volumetry	1011.9
412.2 K, 110000 kPa, Bellows volumetry	1016.6
412.2 K, 120000 kPa, Bellows volumetry	1021.2
412.2 K, 130000 kPa, Bellows volumetry	1025.7
412.2 K, 140000 kPa, Bellows volumetry	1030
412.2 K, 150000 kPa, Bellows volumetry	1034.1
412.2 K, 160000 kPa, Bellows volumetry	1038.2
412.2 K, 170000 kPa, Bellows volumetry	1042.2
412.2 K, 180000 kPa, Bellows volumetry	1046.1
412.2 K, 190000 kPa, Bellows volumetry	1049.9
412.2 K, 200000 kPa, Bellows volumetry	1053.6
